{
  "source": "patent US20220264878A1",
  "about": "“HERBICIDAL COMPOSITION CONTAINING R-TYPE PYRIDYLOXY CARBOXYLIC ACID DERIVATIVE AND USE THEREOF” (Qingdao Kingagroot Chemical Compound Co., Ltd., priority 2019, published 2022)",
  "assay_type_in_all_cases": "in vivo",
  "key": {"Eleusine indica": {"system": "Eleusine indica", "assay": "Post-emergence foliage spray, pot culture, fresh weight inhibition (Tables 151-206; 20 days)", "experimental": "(§1) Table 151-206: Digitaria sanguinalis, Amaranthus retroflexus, Conyza Canadensis, Capsella bursa-pastoris, Eleusine indica were collected in Huangdao of Shandong Province, Sinapis arvensis were collected in Sixian of Anhui Province, Alopecurus japonicus were collected in Tianchang of Anhui Province, Veronica didyma were collected in Siyang of Jiangsu Province.\n(§2) The above weeds were cultivated by a pot culture method. […] Full and uniform weed seeds were selected, soaked in warm water at 25° C. for 6 hours, and germinated in a 28° C. biochemical incubator (darkness). The weed seeds that had just germinatedwere evenly placed on the surface of the soil and then covered with 0.5-1 cm soil according to the sizes of seeds.\n(§3) The culture was carried out in a controllable sunlight greenhouse at 20 to 30° C., in natural light, and relative humidity of 57% to 72%.\n(§4) The technical materials were all dissolved in acetone, and diluted with an aqueous solution containing 0.1% emulsifier Tween-80. The dilution is performed as required.\n(§5) A ratio of the active ingredient A to the active ingredient B and amounts thereof in each group depends on the characteristics and toxicity of the two agents, as well as the main application purpose of a corresponding formulation. Based on the pre-tests in this study, the dosage of the active ingredient A and B applied alone and in combination were shown in the tables. Water containing the solvent and emulsifier same with the above groups but free of the agents was used as a blank control.\n(§6) Table 1-48, 51-98, 101-148, 151-206: […] per treatment, that is, a total of 60 weeds were treated in one treatment.\n(§7) Table 151-206: The agents were used for only once in the experiment. In the stage of weeds with 3˜4 leaves, the weeds were thinned out to maintain 15 weeds per pot and 45 weeds for each treatment, then continued to be cultured to 4˜5 leaves stage of grassy weeds, 5˜6 leaves stage of broadleaf weeds, and treated.\n(§8) The well-cultured weeds were evenly placed on a platform with an area of 0.5 m^2, and a solution of agents was sprayed on the stems and leaves thereof by the 3WP-2000-type walking spray tower at a dosage of 450 kg/ha and at a spray pressure of 0.3 MPa. After all the solution was sprayed, the valve was closed. After 30 seconds, the door of the spray tower was opened, and the nutritional bowl was taken out. Then the valve was opened, and the spray tube was cleaned by spraying 50 ml of water.\n(§9) A pot-culture method was employed. For the cultivation of weeds, please refer to the Section 1.1), and “Pesticide guidelines for laboratory bioactivity tests—herbicides”. As to a method for applying agents, please refer to the section 2.3.2), that is, a foliage treatment was employed. After the treatment, the weeds were routinely cultured in a greenhouse.\n(§10) A method for investigating absolute number was employed, wherein whole seedlings of survival weeds were cut off with a blade along the soil surface, and the fresh weight of the weeds was weighed with an analytical balance. For dead weeds, the fresh weight thereof was zero.\n(§11) Table 151-206: The investigation was performed after 20 days of the treatment for only once.\n(§12) Theoretical fresh weight inhibition rate of a combination of two active ingredients in each group was calculated by the Gowing method (E0=X+Y−X*Y/100), and then compared with an actually measured inhibition rate (E), thereby effect of the combination (hereafter referred to as combined effect) on weeds was evaluated: the value of E-E0, which was greater than 10%, corresponded to a synergistic effect, the value of E-E0, which was less than −10%, corresponded to an antagonistic effect, and the value of E-E0, which was from −10% to 10%, corresponded to an additional effect."}, "Digitaria sanguinalis": {"system": "Digitaria sanguinalis", "assay": "Post-emergence foliage spray, pot culture, fresh weight inhibition (Tables 151-206; 20 days)", "experimental": "as §1, §2, §3, §4, §5, §6, §7, §8, §9, §10, §11, §12"}, "Alopecurus japonicus": {"system": "Alopecurus japonicus", "assay": "Post-emergence foliage spray, pot culture, fresh weight inhibition (Tables 151-206; 20 days)", "experimental": "as §1, §2, §3, §4, §5, §6, §7, §8, §9, §10, §11, §12"}, "Sinapis arvensis": {"system": "Sinapis arvensis", "assay": "Post-emergence foliage spray, pot culture, fresh weight inhibition (Tables 151-206; 20 days)", "experimental": "as §1, §2, §3, §4, §5, §6, §7, §8, §9, §10, §11, §12"}, "Conyza Canadensis": {"system": "Conyza Canadensis", "assay": "Post-emergence foliage spray on Conyza Canadensis with a height of 10 cm, fresh weight inhibition (Tables 207-216; 24 days)", "conditions": "24 days after treatment", "experimental": "as §2, §4, §5\nIn the stage of weeds with 6˜8 leaves, the weeds were thinned out to maintain 3 weeds per pot and 30 weeds for each treatment, then continued to be cultured to Conyza Canadensis with a height of 10 cm, and treated.\nas §8, §9, §10\nWherein, in the formula, X represented the fresh weight inhibition rate of the active ingredient A in a dosage of P, and Y represented the fresh weight inhibition rate of the active ingredient B in a dosage of Q."}, "[1]": {"conditions": "B alone 75 g a.i./ha, 20 days after treatment"}, "[2]": {"conditions": "B alone 150 g a.i./ha, 20 days after treatment"}, "[3]": {"conditions": "B alone 300 g a.i./ha, 20 days after treatment"}, "[4]": {"conditions": "B alone 600 g a.i./ha, 20 days after treatment"}},
  "data": [
    {"smiles": "O=C(O)CNCP(=O)(O)O", "note": "[glyphosate]", "values": [
      {"measurement": "Control effect (%) of B applied alone in corresponding dose", "setting": "Eleusine indica; B 75 g a.i./ha, 20 days", "result": 6.9, "unit": "%"},
      {"measurement": "Control effect (%) of B applied alone in corresponding dose", "setting": "Eleusine indica; B 150 g a.i./ha, 20 days", "result": 13.6, "unit": "%"},
      {"measurement": "Control effect (%) of B applied alone in corresponding dose", "setting": "Eleusine indica; B 300 g a.i./ha, 20 days", "result": 21.3, "unit": "%"},
      {"measurement": "Control effect (%) of B applied alone in corresponding dose", "setting": "Eleusine indica; B 600 g a.i./ha, 20 days", "result": 68.9, "unit": "%"},
      {"measurement": "Control effect (%) of B applied alone in corresponding dose", "setting": "Eleusine indica; [1]", "result": 6.9, "unit": "%"},
      {"measurement": "Control effect (%) of B applied alone in corresponding dose", "setting": "Eleusine indica; [2]", "result": 13.6, "unit": "%"},
      {"measurement": "Control effect (%) of B applied alone in corresponding dose", "setting": "Eleusine indica; [3]", "result": 21.3, "unit": "%"},
      {"measurement": "Control effect (%) of B applied alone in corresponding dose", "setting": "Eleusine indica; [4]", "result": 68.9, "unit": "%"},
      {"measurement": "Control effect (%) of B applied alone in corresponding dose", "setting": "Digitaria sanguinalis; B 75 g a.i./ha, 20 days", "result": 12.3, "unit": "%"},
      {"measurement": "Control effect (%) of B applied alone in corresponding dose", "setting": "Digitaria sanguinalis; B 150 g a.i./ha, 20 days", "result": 24.6, "unit": "%"},
      {"measurement": "Control effect (%) of B applied alone in corresponding dose", "setting": "Digitaria sanguinalis; B 300 g a.i./ha, 20 days", "result": 43.5, "unit": "%"},
      {"measurement": "Control effect (%) of B applied alone in corresponding dose", "setting": "Digitaria sanguinalis; B 600 g a.i./ha, 20 days", "result": 76.4, "unit": "%"},
      {"measurement": "Control effect (%) of B applied alone in corresponding dose", "setting": "Digitaria sanguinalis; [1]", "result": 12.3, "unit": "%"},
      {"measurement": "Control effect (%) of B applied alone in corresponding dose", "setting": "Digitaria sanguinalis; [2]", "result": 24.6, "unit": "%"},
      {"measurement": "Control effect (%) of B applied alone in corresponding dose", "setting": "Digitaria sanguinalis; [3]", "result": 43.5, "unit": "%"},
      {"measurement": "Control effect (%) of B applied alone in corresponding dose", "setting": "Digitaria sanguinalis; [4]", "result": 76.4, "unit": "%"},
      {"measurement": "Control effect (%) of B applied alone in corresponding dose", "setting": "Alopecurus japonicus; B 75 g a.i./ha, 20 days", "result": 7.6, "unit": "%"},
      {"measurement": "Control effect (%) of B applied alone in corresponding dose", "setting": "Alopecurus japonicus; B 150 g a.i./ha, 20 days", "result": 19.5, "unit": "%"},
      {"measurement": "Control effect (%) of B applied alone in corresponding dose", "setting": "Alopecurus japonicus; B 300 g a.i./ha, 20 days", "result": 30.8, "unit": "%"},
      {"measurement": "Control effect (%) of B applied alone in corresponding dose", "setting": "Alopecurus japonicus; B 600 g a.i./ha, 20 days", "result": 66.9, "unit": "%"},
      {"measurement": "Control effect (%) of B applied alone in corresponding dose", "setting": "Alopecurus japonicus; [1]", "result": 7.6, "unit": "%"},
      {"measurement": "Control effect (%) of B applied alone in corresponding dose", "setting": "Alopecurus japonicus; [2]", "result": 19.5, "unit": "%"},
      {"measurement": "Control effect (%) of B applied alone in corresponding dose", "setting": "Alopecurus japonicus; [3]", "result": 30.8, "unit": "%"},
      {"measurement": "Control effect (%) of B applied alone in corresponding dose", "setting": "Alopecurus japonicus; [4]", "result": 66.9, "unit": "%"},
      {"measurement": "Control effect (%) of B applied alone in corresponding dose", "setting": "Sinapis arvensis; B 75 g a.i./ha, 20 days", "result": 2.5, "unit": "%"},
      {"measurement": "Control effect (%) of B applied alone in corresponding dose", "setting": "Sinapis arvensis; B 150 g a.i./ha, 20 days", "result": 9.4, "unit": "%"},
      {"measurement": "Control effect (%) of B applied alone in corresponding dose", "setting": "Sinapis arvensis; B 300 g a.i./ha, 20 days", "result": 19.8, "unit": "%"},
      {"measurement": "Control effect (%) of B applied alone in corresponding dose", "setting": "Sinapis arvensis; B 600 g a.i./ha, 20 days", "result": 37.2, "unit": "%"},
      {"measurement": "Control effect (%) of B applied alone in corresponding dose", "setting": "Sinapis arvensis; [1]", "result": 2.5, "unit": "%"},
      {"measurement": "Control effect (%) of B applied alone in corresponding dose", "setting": "Sinapis arvensis; [2]", "result": 9.4, "unit": "%"},
      {"measurement": "Control effect (%) of B applied alone in corresponding dose", "setting": "Sinapis arvensis; [3]", "result": 19.8, "unit": "%"},
      {"measurement": "Control effect (%) of B applied alone in corresponding dose", "setting": "Sinapis arvensis; [4]", "result": 37.2, "unit": "%"}
    ]},
    {"smiles": "COC(=O)c1nc(-c2ccc(Cl)c(OC)c2F)cc(N)c1Cl", "note": "[halauxifen-methyl]", "values": [
      {"measurement": "Control effect (%) of B applied alone in corresponding dose", "setting": "Conyza Canadensis; B alone 3.75 g a.i./ha", "result": 20.5, "unit": "%"},
      {"measurement": "Control effect (%) of B applied alone in corresponding dose", "setting": "Conyza Canadensis; B alone 15 g a.i./ha", "result": 81.5, "unit": "%"}
    ]},
    {"smiles": "Nc1c(Cl)c(Cl)nc(C(=O)O)c1Cl", "note": "[picloram]", "values": [
      {"measurement": "Control effect (%) of B applied alone in corresponding dose", "setting": "Conyza Canadensis; B alone 7.5 g a.i./ha", "result": 5.0, "unit": "%"},
      {"measurement": "Control effect (%) of B applied alone in corresponding dose", "setting": "Conyza Canadensis; B alone 60 g a.i./ha", "result": 69.4, "unit": "%"}
    ]},
    {"smiles": "O=C(O)c1c(Cl)ccc2cc(Cl)cnc12", "note": "[quinclorac]", "values": [
      {"measurement": "Control effect (%) of B applied alone in corresponding dose", "setting": "Conyza Canadensis; B alone 30 g a.i./ha", "result": 11.7, "unit": "%"},
      {"measurement": "Control effect (%) of B applied alone in corresponding dose", "setting": "Conyza Canadensis; B alone 60 g a.i./ha", "result": 28.8, "unit": "%"},
      {"measurement": "Control effect (%) of B applied alone in corresponding dose", "setting": "Conyza Canadensis; B alone 120 g a.i./ha", "result": 53.7, "unit": "%"},
      {"measurement": "Control effect (%) of B applied alone in corresponding dose", "setting": "Conyza Canadensis; B alone 240 g a.i./ha", "result": 76.2, "unit": "%"}
    ]},
    {"smiles": "O=C(O)COc1nc(Cl)c(Cl)cc1Cl", "note": "[triclopyr]", "values": [
      {"measurement": "Control effect (%) of B applied alone in corresponding dose", "setting": "Conyza Canadensis; B alone 300 g a.i./ha", "result": 78.4, "unit": "%"}
    ]}
  ]
}
